The values below are quoted from earlier work in PMC2074382 (British Journal of Cancer, 1996).

For data set [1] the following is noted: clinical; cited from earlier work.
Details of data set [2]: method as in PMID 5081595, PMID 8137244. Conditions: in vitro and in vivo pharmacology; cited from earlier work.
Details of data set [3]: method as in Rowinsky et al., 1992; Verweij et al., 1993. The following applies: daily x 5 schedule; ref Rowinsky et al., 1992; Verweij et al., 1993; cited from earlier work.

Structures are written as SMILES.

Turning to `CCc1c2c(nc3ccc(OC(=O)N4CCC(N5CCCCC5)CC4)cc13)-c1cc3c(c(=O)n1C2)COC(=O)[C@]3(O)CC` [Irinotecan], in data set [1], the induced toxicity entry is listed as “neutropenia in addition to diarrhoea”. For `CC[C@@]1(O)C(=O)OCc2c1cc1n(c2=O)Cc2cc3c(CN(C)C)c(O)ccc3nc2-1` [topotecan], the “potency relative to GI147211 (fold less potent)” value in data set [2] is on record as 2.2 fold. The dose-limiting toxicity result in data set [3] is “myelosuppression”.
